Test results from patent US4313943A, “7-Chloro-2,3-dihydro-5-phenyl-1-propargyl-1H-1,4-benzodiazepine-2-one, and a pharmaceutical composition thereof” (priority 1972, dated 1982).

How the values were obtained:
[1] = Aggressive behavior elicited by foot shock; assay type: in vivo; details: oral
From the text: The aggressive behavior of test animals was elicited by a conventional foot shock procedure after administration of Compounds 1 and 4.

[2] = Spontaneous mobility (Svenson and Thieme); assay type: in vivo
Method: Spontaneous mobility in test animals was determined by the Svenson and Thieme procedure as published in Psychopharmacologia, Vol. 14, 1969, pages 157 et seq.

[3] = Modifications in the electrocorticogram (ECoG) of unanesthetized animals, R index; assay type: in vivo
Method: Twenty-four hours prior to the test, the surface of a test animal's skull was exposed and stainless steel electrodes were screwed through the lamina externa to make contact with the dura matter in the frontal, parietal and occipital regions, on both sides of the median and transverse sutures. The ECoG was recorded on a REEGA MINI HUIT (Alvar Electronic) encephalograph with a transverse circuit, with bi-frontal, bi-parietal and bi-occipital leads and a longitudinal circuit, with fronto-pariental and parieto-occipital leads on both left and right. One track was used to record respiration, with leads from two steel needles placed under the shin, on either side of the thorax.
Some test animals were kept in restraint cases placed in a relatively soundproof room and some were left free to move in metal cases measuring 40×50×30 cm, which were also kept in a relatively quiet environment.
The activity of the test compounds studied was judged on the one hand by the pattern of spontaneous electrogenesis, especially by the relative degree to which the three basic rhythms of the ECoG in the animals were represented; the theta rhythm (4-8 c/sec.), predominant and characteristic of the state of wakefulness in the posterior regions; bursts of rapid spiked waves (alpha rhythm, 9-15 c/sec.) recorded in the course of diffused wakefulness, and slow waves (delta rhythm, 0.5-3 c/sec.) which are absent in a state of wakefulness except in pathological conditions or in the presence of medicinal substances, a rhythm characteristic of slow-wave sleep. The rapid, low-voltage beta rhythm, not very characteristic of the ECoG in the test animals used and primarily superimposed on the other rhythms, was not analyzed.
Possible modifications in cortical reactivity were also investigated, using two types of stimulation, one comprised an auditory stimulus (whistle blasts) and the other a nociceptive stimulus delivered to the cutaneous nerve endings by pinching the dorsal skin with Kocher's clamps.
To the foregoing qualitative analysis, a quantitative analysis concerning the evolution of spontaneous electrogenesis under the influence of test compounds 1 and 4 was added. The activity of the two compounds was judged by variations in an "R" index, defined as the ratio between the theta waking rhythm, slow waves and bursts of rapid spiked waves. Initially, R was evaluated quantitatively on a scale from 0 to 4 and after this initial estimate, variations in the R index were rated on a scale from 0 to 5 as follows:
1. Maintenance of the value calculated in making the reference tracking (basal value) 0 since variation is nil.
2. Reduction in basal values
(a) reduction of basal value by one-half -1.
(b) observed value between 1/2 and 1/5 of basal value -2.
(c) observed value between 1/5 and 1/10 of basal value -3.
(d) observed value between 1/10 and 1/20 of basal value -4.
(e) observed value lower than 1/20 of basal value, reflecting maximum perturbation of spontaneous ECoG and expressing either a pathological condition or a state of slow-wave sleep, with the absence of theta rhythms and the exclusive presence of slow waves and/or bursts of rapid spiked waves -5.
Once the various values were allocated to each animal, the mean of these values were calculated for each experimental period. From these means, calculations were made of the percentages of variation as compared to a theoretical maximum value of -5 for each experimental period. The percentage for each period was calculated every 30 minutes for 7 hours, with a theoretical total of -10 per hour, then between 7 and 48 hours (theoretical total […]) and between the time of administering the test compound and the 48th hour (theoreticaltotal -90). Variations of 10% were not regarded as significant. All dosages were administered intragastrically through the esophageal tube. […]

[4] = Postural tonus in restrained animals; assay type: in vivo; details: more pronounced effect of compound 4 especially at 30 mg/kg
From the text: The final observations were concerned with the influence of the test compounds on postural tonus. Evaluationg postural tonus in the animals kept in restraint cages was somewhat difficult. It was possible to judge this aspect by pulling the hind quarters of the animals out of the cage and observing whether the animals was capable of returning spontaneously to its position inside the cage, which control animals were able to do immediately.

[5] = Motor coordination in rats (rotarod, Dunham and Miya 1957)
[6] = 7.5 mg/kg intragastric, 2 Hours
[7] = 7.5 mg/kg intragastric, 3 Hours
[8] = 7.5 mg/kg intragastric, 4 Hours
[9] = 7.5 mg/kg intragastric, 5 Hours
[10] = 7.5 mg/kg intragastric, 6 Hours
[11] = 7.5 mg/kg intragastric, 7 Hours
[12] = 7.5 mg/kg intragastric, 48 Hours (7-48 h)
[13] = 7.5 mg/kg intragastric, After 48 Hours (0-48 h total)
[14] = 15.0 mg/kg intragastric, 1 Hour
[15] = 15.0 mg/kg intragastric, 2 Hours
[16] = 15.0 mg/kg intragastric, 3 Hours
[17] = 15.0 mg/kg intragastric, 4 Hours
[18] = 15.0 mg/kg intragastric, 5 Hours
[19] = 15.0 mg/kg intragastric, 6 Hours
[20] = 15.0 mg/kg intragastric, 7 Hours
[21] = 15.0 mg/kg intragastric, 48 Hours (7-48 h)
[22] = 15.0 mg/kg intragastric, After 48 Hours (0-48 h total)
[23] = 30.0 mg/kg intragastric, 1 Hour
[24] = 30.0 mg/kg intragastric, 2 Hours
[25] = 30.0 mg/kg intragastric, 3 Hours
[26] = 30.0 mg/kg intragastric, 4 Hours
[27] = 30.0 mg/kg intragastric, 5 Hours
[28] = 30.0 mg/kg intragastric, 6 Hours
[29] = 30.0 mg/kg intragastric, 7 Hours
[30] = 30.0 mg/kg intragastric, 48 Hours (7-48 h)
[31] = 30.0 mg/kg intragastric, After 48 Hours (0-48 h total)

C#CCN1C(=O)CN=C(c2ccccc2)c2cc(Cl)ccc21 [Compound 1, 7-chloro-2,3-dihydro-5-phenyl-1-propargyl-1H-1,4-benzodiazepin-2-one]
ED50 [1]: 3.3 mg/kg
activity in depressing spontaneous mobility compared with Compound 4 ([2]; in vivo): approximately three times less active than Compound 4
ED50 ([2]; po, read-out: oral ED50 (depressing spontaneous mobility)): 76.6 mg/kg
duration of effect on spontaneous electrogenesis ([3]; 1.5 mg/kg): 2 h
latency of the effects ([3]; 1.5 mg/kg): 21 min
average duration of effect on spontaneous electrogenesis ([3]; 3.75 mg/kg): 4 h
R index variation, Mean ([3]; 7.5 mg/kg intragastric, 1 Hour): -7.5
R index, % of Variation ([3]; 7.5 mg/kg intragastric, 1 Hour): -50.0%
R index variation, Mean [3, 6]: -6.0
R index, % of Variation [3, 6]: -60.0%
R index variation, Mean [3, 7]: -4.5
R index, % of Variation [3, 7]: -45.0%
R index variation, Mean [3, 8]: -4.0
R index, % of Variation [3, 8]: -40.0%
R index variation, Mean [3, 9]: -3.0
R index, % of Variation [3, 9]: -30.0%
R index variation, Mean [3, 10]: -2.0
R index, % of Variation [3, 10]: -20.0%
R index variation, Mean [3, 11]: -1.5
R index, % of Variation [3, 11]: -15.0%
R index variation, Mean [3, 12]: -0.5
R index, % of Variation [3, 12]: -3.3%
R index variation, Mean [3, 13]: -29.0
R index, % of Variation [3, 13]: -32.2%
R index variation, Mean [3, 14]: -11.5
R index, % of Variation [3, 14]: -76.7%
R index variation, Mean [3, 15]: -7.0
R index, % of Variation [3, 15]: -70.0%
R index variation, Mean [3, 16]: -5.5
R index, % of Variation [3, 16]: -55.0%
R index variation, Mean [3, 17]: -5.5
R index, % of Variation [3, 17]: -55.0%
R index variation, Mean [3, 18]: -4.0
R index, % of Variation [3, 18]: -40.0%
R index variation, Mean [3, 19]: -2.0
R index, % of Variation [3, 19]: -20.0%
R index variation, Mean [3, 20]: -2.0
R index, % of Variation [3, 20]: -20.0%
R index variation, Mean [3, 21]: +1.5
R index, % of Variation [3, 21]: +10.0%
R index variation, Mean [3, 22]: -36.0
R index, % of Variation [3, 22]: -40.0%
Cortical reactivity induced by exteroceptive stimulation ([3]; 30 mg/kg): remained unchanged
R index variation, Mean [3, 23]: -8.66
R index, % of Variation [3, 23]: -57.7%
R index variation, Mean [3, 24]: -6.99
R index, % of Variation [3, 24]: -69.9%
R index variation, Mean [3, 25]: -6.99
R index, % of Variation [3, 25]: -69.9%
R index variation, Mean [3, 26]: -6.33
R index, % of Variation [3, 26]: -63.3%
R index variation, Mean [3, 27]: -4.33
R index, % of Variation [3, 27]: -43.3%
R index variation, Mean [3, 28]: -1.32
R index, % of Variation [3, 28]: -13.2%
R index variation, Mean [3, 29]: -0.99
R index, % of Variation [3, 29]: -9.9%
R index variation, Mean [3, 30]: -1.66
R index, % of Variation [3, 30]: -11.1%
R index variation, Mean [3, 31]: -37.3
R index, % of Variation [3, 31]: -41.4%
duration of effects on spontaneous electrogenesis ([3]; 7.5, 15 and 30 mg/kg): at least 5 hours
reduction in postural tonus [4]: slight reduction in the tonus
% Uncoordinated Animals ([5]; 48 mg/kg/os): 25%
% Uncoordinated Animals ([5]; 68 mg/kg/os): 50%
% Uncoordinated Animals ([5]; 96 mg/kg/os): 75%
dose needed for same motor uncoordination as after Compound 3 or 4 ([5]; oral): about five times more
TD50 ([5]; rat, rotarod, po): 67.9 mg/kg
